Laboratory results taken from ChEMBL document CHEMBL1201862, “PubChem BioAssay data set” (2004).
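Compound exposure: 48 hours, 5 concentrations, 96-well plates. GI50 = concentration required for 50% inhibition of growth.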 Activity calls are given as the source filed them. Cut-off read from the data, not from the text of the source: active = GI50 up to about 1.1 µM and inactive = higher.

Legend:
Assay in all cases: NCI anticancer screen, dose series, 48 h
A498 = tested on: A498
A549 = tested on: A549
ACHN = tested on: ACHN
CAKI-1 = tested on: CAKI-1
CCRF-CEM = tested on: CCRF-CEM
COLO 205 = tested on: COLO 205
DLD-1 = tested on: DLD-1
DMS-114 = tested on: DMS-114
DMS-273 = tested on: DMS-273
EKVX = tested on: EKVX
HCC 2998 = tested on: HCC 2998
HCT-116 = tested on: HCT-116
HCT-15 = tested on: HCT-15
HL-60 = tested on: HL-60
HOP-18 = tested on: HOP-18
HOP-92 = tested on: HOP-92
HT-29 = tested on: HT-29
IGROV-1 = tested on: IGROV-1
K562 = tested on: K562
KM12 = tested on: KM12
LOX IMVI = tested on: LOX IMVI
LXFL 529 = tested on: LXFL 529
M14 = tested on: M14
MOLT-4 = tested on: MOLT-4
Malme-3M = tested on: Malme-3M
NCI-H226 = tested on: NCI-H226
NCI-H23 = tested on: NCI-H23
NCI-H460 = tested on: NCI-H460
OVCAR-4 = tested on: OVCAR-4
OVCAR-5 = tested on: OVCAR-5
OVCAR-8 = tested on: OVCAR-8
RPMI-8226 = tested on: RPMI-8226
RXF 393 = tested on: RXF 393
RXF 631 = tested on: RXF 631
SF-268 = tested on: SF-268
SF-295 = tested on: SF-295
SF-539 = tested on: SF-539
SK-MEL-28 = tested on: SK-MEL-28
SK-MEL-2 = tested on: SK-MEL-2
SK-MEL-5 = tested on: SK-MEL-5
SN12C = tested on: SN12C
SNB-19 = tested on: SNB-19
SNB-75 = tested on: SNB-75
SNB-78 = tested on: SNB-78
SR = tested on: SR
SW-620 = tested on: SW-620
TK-10 = tested on: TK-10
U-251 = tested on: U-251
UACC-257 = tested on: UACC-257
XF498 = tested on: XF498
786-0 = tested on: 786-0
HOP-62 = tested on: HOP-62
KM-20L2 = tested on: KM-20L2
M19-MEL = tested on: M19-MEL
NCI-H522 = tested on: NCI-H522
OVCAR-3 = tested on: OVCAR-3
SK-OV-3 = tested on: SK-OV-3
UACC-62 = tested on: UACC-62
UO-31 = tested on: UO-31

CC1=C[C@]2(CC(C)C3C(CC4(C)C5CCC6C(C)(C)C(=O)CC[C@@]67C[C@@]57CC[C@]34C)O2)OC1=O (stereo partly specified)
GI50 (A498): 23.7 µM (inactive)
GI50 (A549): 16.6 µM (inactive)
GI50 (ACHN): 24.6 µM (inactive)
GI50 (CAKI-1): 16.9 µM (inactive)
GI50 (CCRF-CEM): > 100 µM (inactive)
GI50 (COLO 205): 36.9 µM (inactive)
GI50 (DLD-1): 11 µM (inactive)
GI50 (DMS-114): 3.81 µM (inactive)
GI50 (DMS-273): 3.95 µM (inactive)
GI50 (EKVX): 44.8 µM (inactive)
GI50 (HCC 2998): 18.1 µM (inactive)
GI50 (HCT-116): 3.33 µM (inactive)
GI50 (HCT-15): 7.64 µM
GI50 (HL-60): 0.968 µM (active)
GI50 (HOP-18): 6.43 µM (inactive)
GI50 (HOP-92): 18.1 µM (inactive)
GI50 (HT-29): 9.31 µM (inactive)
GI50 (IGROV-1): 6.32 µM (inactive)
GI50 (K562): 4.03 µM (inactive)
GI50 (KM12): 18.9 µM (inactive)
GI50 (LOX IMVI): 3.46 µM (inactive)
GI50 (LXFL 529): 7.52 µM (inactive)
GI50 (M14): 47.3 µM (inactive)
GI50 (MOLT-4): 10.7 µM (inactive)
GI50 (Malme-3M): 44.4 µM (inactive)
GI50 (NCI-H226): 1.88 µM (inactive)
GI50 (NCI-H23): 7.64 µM (inactive)
GI50 (NCI-H460): 19.4 µM (inactive)
GI50 (OVCAR-4): 19 µM (inactive)
GI50 (OVCAR-5): 2.21 µM (inactive)
GI50 (OVCAR-8): 25.2 µM (inactive)
GI50 (RPMI-8226): 9.2 µM (inactive)
GI50 (RXF 393): 5.11 µM (inactive)
GI50 (RXF 631): 3.54 µM (inactive)
GI50 (SF-268): 33.9 µM (inactive)
GI50 (SF-295): 25.3 µM (inactive)
GI50 (SF-539): 13.8 µM (inactive)
GI50 (SK-MEL-28): 18.6 µM (inactive)
GI50 (SK-MEL-2): 34.4 µM (inactive)
GI50 (SK-MEL-5): 2.65 µM (inactive)
GI50 (SN12C): 41.1 µM (inactive)
GI50 (SNB-19): 15.7 µM (inactive)
GI50 (SNB-75): 16.8 µM (inactive)
GI50 (SNB-78): 23.2 µM (inactive)
GI50 (SR): 3.82 µM (inactive)
GI50 (SW-620): 12.6 µM (inactive)
GI50 (TK-10): 26 µM (inactive)
GI50 (U-251): 14.6 µM (inactive)
GI50 (UACC-257): 8.63 µM (inactive)
GI50 (XF498): 13.9 µM (inactive)

Nc1nc2ncn(CC(O)COC(=O)c3ccccc3)c2c(=O)[nH]1 (stereo unspecified)
GI50 (786-0): > 100 µM (inactive)
GI50 (A498): > 100 µM (inactive)
GI50 (A549): > 100 µM (inactive)
GI50 (ACHN): > 100 µM (inactive)
GI50 (CAKI-1): > 100 µM (inactive)
GI50 (CCRF-CEM): > 100 µM (inactive)
GI50 (COLO 205): > 100 µM (inactive)
GI50 (DLD-1): > 100 µM (inactive)
GI50 (DMS-114): > 100 µM (inactive)
GI50 (DMS-273): > 100 µM (inactive)
GI50 (EKVX): > 100 µM (inactive)
GI50 (HCT-116): > 100 µM (inactive)
GI50 (HCT-15): > 100 µM
GI50 (HL-60): > 100 µM (inactive)
GI50 (HOP-18): > 100 µM (inactive)
GI50 (HOP-62): > 100 µM (inactive)
GI50 (HOP-92): > 100 µM (inactive)
GI50 (HT-29): > 100 µM (inactive)
GI50 (IGROV-1): > 100 µM (inactive)
GI50 (K562): > 100 µM (inactive)
GI50 (KM-20L2): > 100 µM (inactive)
GI50 (KM12): > 100 µM (inactive)
GI50 (LOX IMVI): > 100 µM (inactive)
GI50 (LXFL 529): > 100 µM (inactive)
GI50 (M14): > 100 µM (inactive)
GI50 (M19-MEL): > 100 µM (inactive)
GI50 (Malme-3M): > 100 µM (inactive)
GI50 (NCI-H226): > 100 µM (inactive)
GI50 (NCI-H23): > 100 µM (inactive)
GI50 (NCI-H460): > 100 µM (inactive)
GI50 (NCI-H522): > 100 µM (inactive)
GI50 (OVCAR-3): > 100 µM (inactive)
GI50 (OVCAR-4): > 100 µM (inactive)
GI50 (OVCAR-5): > 100 µM (inactive)
GI50 (OVCAR-8): > 100 µM (inactive)
GI50 (RPMI-8226): > 100 µM (inactive)
GI50 (RXF 393): > 100 µM (inactive)
GI50 (RXF 631): > 100 µM (inactive)
GI50 (SF-268): > 100 µM (inactive)
GI50 (SF-295): > 100 µM (inactive)
GI50 (SF-539): > 100 µM (inactive)
GI50 (SK-MEL-28): > 100 µM (inactive)
GI50 (SK-MEL-2): > 100 µM (inactive)
GI50 (SK-MEL-5): > 100 µM (inactive)
GI50 (SK-OV-3): > 100 µM (inactive)
GI50 (SN12C): > 100 µM (inactive)
GI50 (SNB-75): > 100 µM (inactive)
GI50 (SNB-78): 48.3 µM (inactive)
GI50 (SR): > 100 µM (inactive)
GI50 (SW-620): > 100 µM (inactive)
GI50 (TK-10): > 100 µM (inactive)
GI50 (U-251): > 100 µM (inactive)
GI50 (UACC-257): > 100 µM (inactive)
GI50 (UACC-62): > 100 µM (inactive)
GI50 (UO-31): > 100 µM (inactive)
GI50 (XF498): > 100 µM (inactive)
